From patent US20120263848A1, “Organic Compounds” (priority 2009, published 2012)
“Also recorded” adds a separate entry of the source.

What was measured:
Assay type in all cases: in vivo
[1] = test system: sweet sensitive panelists; assay: Sweet enhancement in a cola beverage application (7% sucrose cola, R-index ranking)
Description: A 1% ethanol solution of N-cycloheptyl-2-methylindoline-1-carboxamide was added into a 7% sucrose containing cola solution. […] To determine its isointensity a panel of trained experts was then asked to evaluate the taste (in particularly the sweet taste) of this sample solution in comparison to sample cola solutions containing 7%, 8%, 9% and 10% sucrose but no N-cycloheptyl-2-methylindoline-1-carboxamide. Panel testing was carried out in the following way: Twenty milliliters of each of the sample solutions was presented blind and in random order to 20 sweet sensitive panelists. In two replications (over 1 session), panelists were asked to rank the solutions from least sweet to most sweet. The data was then subjected to an R-index analysis as described in example 15.

[2] = test system: sweet sensitive panelists; assay: Isointensity measurement in water against sucrose solutions (R-index ranking)
Description: A 1% solution of N-cycloheptyl-2-methylindoline-1-carboxamide was prepared in ethanol. This 1% solution was then further diluted, using water, to create a 5 ppm sample solution of N-cycloheptyl-2-methylindoline-1-carboxamide. To determine the isointensity of this solution a panel of trained experts was then asked to evaluate the taste (in particularly the sweet taste) of this sample solution in comparison to 0.5%, 1% and 1.5% sample sucrose solutions. Panel testing was carried out in the following way: Twenty milliliters of each of the samples was presented blind and in counter balanced order following a William's Latin square design, to 20 sweet sensitive panelists. In two replications (over 1 session), panelists were asked to taste and rank the solutions from least sweet to most sweet. […] A 1% solution of (R)-N-cyclooctyl-2-methylindoline-1-carboxamide was prepared in ethanol. This 1% solution was then further diluted, using water, to create a 2 ppm sample solution of (R)-N-cyclooctyl-2-methylindoline-1-carboxamide. To determine the isointensity of this solution a panel of trained experts was then asked to evaluate the taste (in particularly the sweet taste) of this sample solution in comparison to 0.5%, 1% and 1.5% sample sucrose solutions. Panel testing was carried out in the following way: Twenty milliliters of each of the samples was presented blind and in counter balanced order following a William's Latin square design, to 20 sweet sensitive panelists. In two replications (over 1 session), panelists were asked to taste and rank the solutions from least sweet to most sweet.

panel of trained experts = assay: Taste evaluation of diluted sample solutions by a panel of trained experts; details: for taste of sample solutions (inherent sweetness): 1% ethanol solutions diluted with water to differing ppm concentrations; for effectiveness at creating modifying, or enhancing the sweet flavour of compositions and consumable products: general statement of the applicant
Description: 1% solutions of compounds of formula (I) were prepared in ethanol. These 1% solutions were then further diluted, using water, to create sample solutions of differing ppm concentrations. A panel of trained experts was then asked to evaluate the taste of each sample solution and to comment on any inherent sweetness, other perceived taste, or flavor attributes. After tasting each sample the experts rinsed their mouths with water and a break was observed until the stimulus disappeared. […]

[3] = test system: sweet sensitive panelists; assay: Sweet enhancement in 7% sucrose (aqueous solution, R-index ranking)
Description: A 1% ethanol solution of (R)-N-cyclooctyl-2-methylindoline-1-carboxamide was added into an aqueous 7% sucrose solution. […] To determine its isointensity a panel of trained experts was then asked to evaluate the taste (in particularly the sweet taste) of this sample solution in comparison to aqueous sample solutions containing 7%, 8%, 9% and 10% sucrose, but without added (R)-N-cyclooctyl-2-methylindoline-1-carboxamide. Panel testing was carried out in the following way: Twenty milliliters of each of the sample solutions was presented blind and in random order to 20 sweet sensitive panelists. In two replications (over 1 session), panelists were asked to rank the solutions from least sweet to most sweet. The data was then subjected to an R-index analysis as described in example 5.

[4] = 7% sugar cola + 5 ppm vs. 7% sugar
[5] = 7% sugar cola + 5 ppm vs. 8% sugar
[6] = 7% sugar cola + 5 ppm vs. 9% sugar
[7] = 7% sugar cola + 5 ppm vs. 10% sugar
[8] = 5 ppm in water vs. 0.5% sucrose solution
[9] = 5 ppm in water vs. 1.0% sucrose solution
[10] = 5 ppm in water vs. 1.5% sucrose solution
[11] = 2 ppm in water vs. 0.5% sucrose solution
[12] = 2 ppm in water vs. 1.0% sucrose solution
[13] = 2 ppm in water vs. 1.5% sucrose solution

`CC1Cc2ccccc2N1C(=O)NC1CCCCCC1` (centres unmarked) [Example 2, N-cycloheptyl-2-methylindoline-1-carboxamide] was tested. Which sweetness enhancer behaviour ([1]; 5 ppm in 7% sucrose cola, iso sweet with 8% instead of expected 7.5% sucrose) did it give?
The sweetness enhancer behaviour was “behaving as a sweetness enhancer”.

What about the “Experimental Compound Sweetness” value [1, 4] of the same molecule?
Its value is “significantly more sweet”.

What about the R-index [1, 4] of the same molecule?
The R-index was 37.72.

What about the “Significantly different (p < 0.05)” value [1, 4] of the same molecule?
Its value is “Yes”.

And the “Experimental Compound Sweetness” value [1, 5]?
The value was “Iso sweet”.

What about the R-index [1, 5] of the same molecule?
The R-index was 40.03.

What about the “Significantly different (p < 0.05)” value [1, 5] of the same molecule?
The value was “No”.

And the “Experimental Compound Sweetness” value [1, 6]?
The value was “significantly less sweet”.

And the R-index [1, 6]?
The R-index was 68.97.

And the “Significantly different (p < 0.05)” value [1, 6]?
Its value is “Yes”.

And the “Experimental Compound Sweetness” value [1, 7]?
The value was “significantly less sweet”.

What about the R-index [1, 7] of the same molecule?
Its R-index is 90.78.

And the “Significantly different (p < 0.05)” value [1, 7]?
The value was “Yes”.

What about the “Experimental Compound Sweetness” value [2, 8] of the same molecule?
Its value is “Iso-sweet; also recorded: iso sweet”.

What about the R-index [2, 8] of the same molecule?
The R-index was 39.38.

And the “Significantly different (p < 0.05)” value [2, 8]?
Its value is “No”.

And the “Experimental Compound Sweetness” value [2, 9]?
The value was “significantly less sweet”.

What about the R-index [2, 9] of the same molecule?
Its R-index is 78.63.

And the “Significantly different (p < 0.05)” value [2, 9]?
The value was “Yes”.

And the “Experimental Compound Sweetness” value [2, 10]?
The value was “significantly less sweet”.

What about the R-index [2, 10] of the same molecule?
Its R-index is 92.00.

And the “Significantly different (p < 0.05)” value [2, 10]?
The value was “Yes”.

How did the “taste of sample solutions (inherent sweetness)” value (panel of trained experts) turn out when `C[C@@H]1Cc2ccccc2N1C(=O)NC1CCCCCCC1` [Example 20, (R)-N-cyclooctyl-2-methylindoline-1-carboxamide] was run?
The value was “sweet”.

What about the “effectiveness at creating modifying, or enhancing the sweet flavour of compositions and consumable products” value (panel of trained experts) of the same molecule?
The value was “particularly effective”.

And the sweetness enhancer behaviour ([3]; 2 ppm in 7% sucrose, iso sweet with 8% sucrose, expected less sweet than 8%)?
Its sweetness enhancer behaviour is “behaving as a sweetness enhancer”.

And the “Experimental Compound Sweetness” value ([3]; 7% sugar + 2 ppm vs. 7% sugar)?
Its value is “significantly more sweet”.

And the R-index ([3]; 7% sugar + 2 ppm vs. 7% sugar)?
Its R-index is 35.53.

And the “Significantly different (p < 0.05)” value ([3]; 7% sugar + 2 ppm vs. 7% sugar)?
The value was “Yes”.

What about the “Experimental Compound Sweetness” value ([3]; 7% sugar + 2 ppm vs. 8% sugar) of the same molecule?
Its value is “Iso sweet”.

What about the R-index ([3]; 7% sugar + 2 ppm vs. 8% sugar) of the same molecule?
The R-index was 61.44.

What about the “Significantly different (p < 0.05)” value ([3]; 7% sugar + 2 ppm vs. 8% sugar) of the same molecule?
The value was “No”.

And the “Experimental Compound Sweetness” value ([3]; 7% sugar + 2 ppm vs. 9% sugar)?
Its value is “significantly less sweet”.

What about the R-index ([3]; 7% sugar + 2 ppm vs. 9% sugar) of the same molecule?
The R-index was 77.09.

And the “Significantly different (p < 0.05)” value ([3]; 7% sugar + 2 ppm vs. 9% sugar)?
The value was “Yes”.

And the “Experimental Compound Sweetness” value ([3]; 7% sugar + 2 ppm vs. 10% sugar)?
Its value is “significantly less sweet”.

And the R-index ([3]; 7% sugar + 2 ppm vs. 10% sugar)?
The R-index was 88.44.

And the “Significantly different (p < 0.05)” value ([3]; 7% sugar + 2 ppm vs. 10% sugar)?
The value was “Yes”.

And the R-index [2, 11]?
Its R-index is 27.00.

And the “Significantly different (p < 0.05)” value [2, 11]?
Its value is “Yes”.

What about the “Experimental Compound Sweetness” value [2, 12] of the same molecule?
Its value is “significantly less sweet”.

What about the R-index [2, 12] of the same molecule?
Its R-index is 72.31.

And the “Significantly different (p < 0.05)” value [2, 12]?
The value was “Yes”.

What about the “Experimental Compound Sweetness” value [2, 13] of the same molecule?
Its value is “significantly less sweet”.

And the R-index [2, 13]?
The R-index was 99.13.

And the “Significantly different (p < 0.05)” value [2, 13]?
The value was “Yes”.

How did the “taste of sample solutions (inherent sweetness)” value (panel of trained experts) turn out when `C[C@@H]1Cc2ccccc2N1C(=O)NC1CCCCCC1` [Example 18, (R)-N-cycloheptyl-2-methylindoline-1-carboxamide] was run?
The value was “sweet”.

What about the “effectiveness at creating modifying, or enhancing the sweet flavour of compositions and consumable products” value (panel of trained experts) of the same molecule?
The value was “particularly effective”.
